The values below come from patent publication US9181186B2, “Aromatic ring compound” (TAKEDA PHARMACEUTICAL COMPANY LIMITED, priority 2012, dated 2015).

Structures are written as SMILES.

T1 sequence (O14842 whole entry): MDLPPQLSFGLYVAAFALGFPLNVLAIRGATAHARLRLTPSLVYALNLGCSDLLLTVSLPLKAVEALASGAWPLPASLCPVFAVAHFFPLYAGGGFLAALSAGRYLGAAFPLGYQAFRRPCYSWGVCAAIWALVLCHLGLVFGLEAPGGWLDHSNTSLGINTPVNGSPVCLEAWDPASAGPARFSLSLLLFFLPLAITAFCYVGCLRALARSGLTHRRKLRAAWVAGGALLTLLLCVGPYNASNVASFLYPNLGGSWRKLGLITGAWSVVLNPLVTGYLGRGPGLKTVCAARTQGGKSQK

The experiment addresses T1, human GPR40 (Homo sapiens, UniProt O14842).
T1 construct: expressed in transfected cells
Put plainly: Evaluation of human GPR40 agonist activity with increase in intracellular Ca2+ concentration as an index (FLIPR Tetra). Format: cell-based. The note with it: test compound 1 μM; CHO(dhfr−) cells stably expressing human GPR40; 100% = 1 μM WO2009/048527 Example 99.2, 0% = DMSO. The method, then:
Evaluation of Human GPR40 Agonist Activity with Increase in Intracellular Ca^2+ Concentration as an Index
CHO(dhfr−) cells that stably expressed human GPR40 were suspended in MEMα (Nikken Bio Medical Laboratory) containing 10% dialysis serum (GEMINI BIO-PRODUCTS), 10 mM HEPES (Invitrogen), 100 U/mL penicillin, 100 μg/mL streptomycin (Invitrogen), and plated on a 384 well black/clear cell culture plate at 10,000 cells/well. After culture overnight in a CO2 incubator at 37° C., the culture supernatant was removed, and a loading buffer [dye attached to Calcium 5 Assay Kit (Molecular Devices) was dissolved in an assay buffer (20 mM HEPES, 0.2% fatty acid-free BSA (Sigma-Aldrich), 2.5 mM probenecid (DOJINDO)-containing HBSS (Invitrogen)) added with 0.025% Cremophor EL (DOJINDO)] was added at 37.5 μL/well. After incubation in a CO2 incubator at 37° C. for 1 hr, the cells were stood at room temperature for 15 min, an assay buffer containing the test compound at a final concentration of 1 μM was added at 12.5 μL/well in FLIPR Tetra (Molecular Devices), and the fluorescence amount was successively measured. Human GPR40 agonist activity calculated using an increase in the intracellular Ca^2+ concentration as an index, wherein the activity of 1 μM of the compound described in WO 2009/048527 (WO2009/048527 Example 99.2) was 100%, and the activity when DMSO was added instead of the test compound was 0%.
The compound `COc1ccc(F)c(-c2cnc(COc3cc(C(CC(=O)O)C4CC4)ncn3)nc2OCC(C)C)c1` (stereo not drawn) [Example 41, 3-cyclopropyl-3-(6-((5-(2-fluoro-5-methoxyphenyl)-4-isobutoxypyrimidin-2-yl)methoxy)pyrimidin-4-yl)propanoic acid] yielded an activation at 1 µM of 110%. Next, `COc1ccc(F)c(-c2ncc(COc3cc(C(CC(=O)O)C4CC4)c(F)cn3)cc2CC2(C#N)CCCC2)c1` (stereo not drawn) [Example 43, 3-(2-((5-((1-cyanocyclopentyl)methyl)-6-(2-fluoro-5-methoxyphenyl)pyridin-3-yl)methoxy)-5-fluoropyridin-4-yl)-3-cyclopropylpropanoic acid]: 115%. Next, `COc1ccc(F)c(-c2ncc(COc3cc(C(CC(=O)O)C4CC4)ncn3)cc2CC(C)(C)C)c1` (stereo not drawn) [Example 35, 3-cyclopropyl-3-(6-((5-(2,2-dimethylpropyl)-6-(2-fluoro-5-methoxyphenyl)pyridin-3-yl)methoxy)pyrimidin-4-yl)propanoic acid]: 101%. Next, `COc1ccc(F)c(-c2ncc(COc3cc(C(CC(=O)O)C4CC4)ccn3)cc2CC(C)(C)C)c1` (stereo not drawn) [Example 40, 3-cyclopropyl-3-(2-((5-(2,2-dimethylpropyl)-6-(2-fluoro-5-methoxyphenyl)pyridin-3-yl)methoxy)pyridin-4-yl)propanoic acid]: 113%.

With `COc1ccc(F)c(-c2ccc(COc3cc(C(CC(=O)O)C4CC4)c(F)cn3)nc2CC(C)(C)C)c1` (stereo not drawn) [Example 42, 3-cyclopropyl-3-(5-fluoro-2-((5-(2-fluoro-5-methoxyphenyl)-6-neopentylpyridin-2-yl)methoxy)pyridin-4-yl)propanoic acid], the activation at 1 µM amounted to 115%.

With `COc1ccc(F)c(-c2ccc(COc3cccc(CCC(=O)O)c3F)nc2CC(C)(C)C)c1` [Example 22, 3-(3-((6-(2,2-dimethylpropyl)-5-(2-fluoro-5-methoxyphenyl)pyridin-2-yl)methoxy)-2-fluorophenyl)propanoic acid], the activation at 1 µM worked out at 103%.
